Consider two compounds from patent EP3731817B1, “PHARMACEUTICAL COMPOSITION OF LENALIDOMIDE PHARMACEUTICALLY ACCEPTABLE ACID ADDITION SALT” (KRKA, d.d., Novo mesto, priority 2017, dated 2019).

Structures can show the parent of a compound that is named as a salt.

A short description of series [1]: Stability testing: physical form (disproportionation) monitored by X-ray powder diffraction after storage in vials. The note with it: physical form found by XRPD after storage in vials. The format is physicochemical. As to the method: The binary mixtures and pharmaceutical compositions were stored in vials at 40°C/75%RH for 1 month or at 50° C 75% RH for 14 days. Disproportionation effect was monitored by X-ray powder diffraction pattern.
X-ray powder diffraction patterns were obtained by a PANalytical PW3040/60 X'Pert PRO diffractometer using CuKα radiation of 1,541874.
Lenalidomide hydrochloride and the all the excipients with respect to the composition were weighed into the glass vial. Gelatine capsule were added into the vials. The vials were then closed with the stopper and gently mixed to form a homogenous mixture. The vials were subjected to the stress conditions.
Lenalidomide hydrochloride in the form of monohydrate form VII and the all the excipients with respect to the composition were weighed into the glass vial. Gelatine capsule were added into the vials. Vials were then closed with the stopper and gently mixed to form a homogenous mixture. The vials were subjected to the stress conditions.
The capsules were stored in vials at 40°C/75%RH for 1 month. Physical stability of the samples was monitored by X-ray powder diffraction pattern. As evident from the results, the physical form remains the same, a disproportionation effect was not observed.

For series [2] the following is noted: cited from earlier work.

With `Nc1cccc2c1CN(C1CCC(=O)NC1=O)C2=O` (stereo not drawn) [API, Lenalidomid HCl·H2O], the “Stability testing 1 month at 40°C/75%RH” value in series [1] was “HCl salt”.

In the case of `Nc1cccc2c1CN(C1CCC(=O)NC1=O)C2=O` (stereo not drawn) [lenalidomide, (3-(4' aminoisoindoline-1'-one)-1-piperidine-2,6-dione)], the “dissociation constant pKa1” value in series [2] (primary amine group) was 2.31. The pKa2 in series [2] (secondary amine group) is 11.6.
